Where two headings read alike, the source gives them in different places.

From paper PMC12006963, “Application of Deuterium in an M1 Positive Allosteric Modulator Back-Up Program: The Discovery of VU6045422” (ACS Chemical Neuroscience, 2025) come the findings set out here.

One data set addresses T1, rM1 (Rattus norvegicus, UniProt P08482).
T1 sequence (P08482 1-460): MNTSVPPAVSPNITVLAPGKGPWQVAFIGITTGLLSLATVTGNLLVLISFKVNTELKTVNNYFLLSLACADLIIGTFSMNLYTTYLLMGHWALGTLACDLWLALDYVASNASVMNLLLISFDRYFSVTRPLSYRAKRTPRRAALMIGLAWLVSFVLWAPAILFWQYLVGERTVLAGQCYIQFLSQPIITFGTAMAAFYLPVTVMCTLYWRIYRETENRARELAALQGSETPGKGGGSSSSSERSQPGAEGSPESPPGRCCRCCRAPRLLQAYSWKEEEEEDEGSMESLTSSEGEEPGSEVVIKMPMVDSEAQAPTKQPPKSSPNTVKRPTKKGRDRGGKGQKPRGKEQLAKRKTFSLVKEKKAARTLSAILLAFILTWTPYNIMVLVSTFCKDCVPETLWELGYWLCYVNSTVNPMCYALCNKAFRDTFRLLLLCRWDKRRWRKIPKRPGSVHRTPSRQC
The data set is described as follows: Calcium mobilization, rat M1 (agonist and PAM modes). Format: cell-based. (A change in cytosolic calcium serves as a functional read-out for many receptors and channels.)

The target of a further data set is CYP 2C9 (Homo sapiens, UniProt P11712). The data set is described as follows: CYP inhibition 2C9. Format: in vitro ADME. From the text: Table 1 Pharmacology and In Vitro DMPK Profiles of M1 PAMs 1, 3, and 5 | column: 1; 3; 5
Data set [1] is described as follows: Hepatocyte metabolite identification (rat). It is filed as in vitro ADME. Particulars: rat hepatocytes, 4 h incubation. The protocol:
(§1) Prior to full characterization of deuterated analogues 3 and 5, they were incubated in rat, dog, monkey, and human hepatocytes, along with 1, to determine the amount of parent remaining, as well as the degree of undesired oxidative metabolites 2, 4, and 6 (Figure 2). […] For the gem-dideutero congener 3, metabolic stability was improved in vitro. […] Thus, in hepatocytes in vitro, the kinetic isotope effect engendered greater metabolic stability of the labile hot spot on the lactam. It remained to be seen if this effect would translate in vivo, but we first had to assess the impact of the deuterated analogues on molecular pharmacology, in vitro DMPK, standard low-dose in vivo DMPK and, if warranted, in vivo efficacy in a rat novel object recognition (NOR) behavioral assay.

A short description of data set [2]: Hepatocyte metabolite identification (dog). Format: in vitro ADME. The conditions noted are these: dog hepatocytes, 4 h incubation. The procedure:
as §1

Data set [3] in a line: Brain to plasma ratio in rat. The conditions noted are these: male, Sprague-Dawley, brain and plasma, intravenous, 0.2 mg/kg, rat (SD); for Kp at 15 min: brain/plasma; for Kp uu at 15 min: unbound brain/unbound plasma. It is filed as in vivo. The procedure: where Qh (hepatic blood flow, mL/min/kg) is 21 (human) or 70 (rat).
LC/MS/MS Bioanalysis of Samples from Plasma Protein Binding and Intrinsic Clearance […]
Samples were analyzed on a Thermo Electron TSQ Quantum Ultra triple quad mass spectrometer (San Jose, CA) via electrospray ionization (ESI) with two Themo Electron Accella pumps (San Jose, CA), and a Leap Technologies CTC PAL autosampler (Carrboro, NC). Analytes were separated by gradient elution on a dual column system with two Thermo Hypersil Gold (2.1 x 30 mm, 1.9 µm) columns (San Jose, CA) thermostated at 40 °C. HPLC mobile phase A was 0.1% formic acid in water and mobile phase B was 0.1% formic acid in acetonitrile. The gradient started […]
for 0.2 min; returned to 10% B in 0.1 min. The total run time was 1.3 min and the HPLC flow rate was 0.8 mL/min. While pump 1 ran the gradient method, pump 2 equilibrated the alternate column isocratically at 10% B. Compound optimization, data collection, and processing was performed using Thermo Electron's QuickQuan software (v2.3) and Xcalibur (v2.0.7 SP1).
In vivo DMPK experimental:
Determination of brain to plasma ratio:
All animal study procedures were approved by the Institutional Animal Care and Use Committee and were conducted in accordance with the National Institutes of Health regulations of animal care covered in Principles of Laboratory Animal Care (National Institutes of Health). All rats were fasted overnight prior to testing.
For determination of the brain over plasma ratio (Kp), compounds were formulated in 8% ethanol, 32% PEG400 and 60% DMSO (v/v/v) and administered as a single 0.2 mg/kg IV dose (1 mL/kg) to male, Sprague Dawley rats (n = 1) via injection into a surgically-implanted jugular vein catheter. At 15 min post dosing, blood sample was collected into chilled, K2EDTA anticoagulant-fortified tube and immediately placed on wet ice. The blood sample was then centrifuged (1700 rcf, 5 minutes, 4 °C) to obtain plasma sample. At the same post-administration time point, whole brain sample was obtained by rapid dissection, rinsed with PBS, and immediately frozen in individual tissue collection box (dry ice). All brain and plasma samples were stored at -80 °C until […]
Sample Analysis: Concentrations in plasma and brain homogenates were quantified by liquid chromatography tandem mass spectrometry (LC-MS/MS). Whole brains were homogenized in 3 mL of 70:30 IPA:water in a mini bead beater for 3 min, and centrifuged at 3,500 g for 5 min. 5 uL of the supernatant was diluted in 15 uL of blank plasma for quantification of the analytes. Plasma samples were centrifuged at 3,500 g for 5 min. A standard curve was generated by diluting the analytes DMSO stocks with blank plasma to obtain a final concentration of 10,000 ng/ml followed by a serial dilution down to 0.5 ng/ml. Quality controls were generated by a serial dilution of the 5,000 ng/ml standard curve solution in blank plasma to obtain 3 concentrations of 500, 50, and 5 ng/ml. 20 uL of brain diluted in plasma, plasma, blank plasma, standard curve and QC samples were loaded in a V-bottom 96-well plate. 120 uL of acetonitrile containing 0.05 uM carbamazepine (internal standard) was added to each well and the plate was centrifuged at 3,500 g for 5 min. 60 uL of the supernatant of each well (protein free) was transferred to a new 96-well plate containing 60 uL of water. The plates were sealed for analysis by LC-MS/MS.
Plasma and brain tissue samples originating from in vivo studies were analyzed by electrospray ionization using an AB Sciex Q-TRAP 5500 (Foster City, CA) that was coupled to a Shimadzu LC-20AD pump (Columbia, MD) and a Leap Technologies CTC PAL auto-sampler (Carrboro, NC). Analytes were separated by gradient elution using a C18 column (3 x 50 mm, 3 mm; Fortis Technologies Ltd, Cheshire, UK) that was thermostated at 40 °C. HPLC mobile phase A was 0.1% formic acid in water (pH unadjusted); mobile phase B was 0.1% formic acid in acetonitrile (pH […]

[4] abbreviates: PAM mode, read-out: rM1 PAM EC50.
Where [5] appears, read: agonist mode, read-out: rM1 Agonist EC50.

Sequence of CYP 2C9 (P11712 whole entry): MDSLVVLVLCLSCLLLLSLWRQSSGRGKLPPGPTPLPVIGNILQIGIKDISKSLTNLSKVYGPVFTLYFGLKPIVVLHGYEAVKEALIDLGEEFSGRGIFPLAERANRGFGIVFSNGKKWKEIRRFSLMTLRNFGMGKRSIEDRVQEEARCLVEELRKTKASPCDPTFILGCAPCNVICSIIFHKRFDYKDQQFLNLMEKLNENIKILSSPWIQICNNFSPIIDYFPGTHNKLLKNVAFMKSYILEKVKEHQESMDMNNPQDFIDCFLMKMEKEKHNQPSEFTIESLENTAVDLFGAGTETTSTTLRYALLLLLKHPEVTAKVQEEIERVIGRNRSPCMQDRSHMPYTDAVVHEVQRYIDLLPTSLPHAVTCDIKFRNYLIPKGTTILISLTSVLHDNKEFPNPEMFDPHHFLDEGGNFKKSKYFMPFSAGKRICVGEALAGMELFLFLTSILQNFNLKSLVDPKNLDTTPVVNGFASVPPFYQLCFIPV

A word on the EC50: it is the concentration needed to bring the measured effect to its halfway point. In general, IC50 refers to the concentration that gives 50% inhibition. The low end stands for inhibition by little substance, the high end for a need for much substance. As a reminder, the Kp is tissue or fluid exposure divided by exposure in the circulation. Regarding `Cn1cc2c(-c3cc(F)c(CN4Cc5ncccc5C4=O)c(F)c3)cccc2n1` [compound 1], the “rM1 PAM AChmax (%)” value at rM1 is 79%. Moreover, the values for the concentration giving a half-maximal response (EC50) on rM1 (setting [4]) and on rM1 (setting [5]) were 213 nM and above 30000 nM, respectively. The molecule also came in with an IC50 at CYP 2C9 above 30 µM. Also, the “% Total Peak Area, parent remaining” value in data set [1] was 76.3%; in data set [2], 71.7%. Moreover, the partition ratio (Kp) at 15 min in data set [3] was determined as 0.77. The Kp uu at 15 min in data set [3] turned out to be 1.3.
On to `[2H]C1([2H])c2ncccc2C(=O)N1Cc1c(F)cc(-c2cccc3nn(C)cc23)cc1F` [compound 3], for which the “rM1 PAM AChmax (%)” value at rM1 is 85%. Further, the concentration for a half-maximal effect (EC50) at rM1 (setting [4]) is 361 nM; on rM1 (setting [5]), above 30000 nM. For the same molecule, at CYP 2C9, the IC50 came to 17.4 µM. The “% Total Peak Area, parent remaining” value is recorded as 87.0% in data set [1] and 91.9% in data set [2]. In addition, in data set [3], the Kp at 15 min worked out at 0.63. In addition, in data set [3], the Kp uu at 15 min stood at 0.57.
On to `[2H]C1([2H])c2ncccc2C(=O)N1Cc1c(F)cc(-c2cccc3nn(C([2H])([2H])[2H])cc23)cc1F` [compound 5], for which, on rM1, the “rM1 PAM AChmax (%)” value came to 82%. The concentration for a half-maximal effect (EC50) was 249 nM on rM1 (setting [4]) and above 30000 nM at rM1 (setting [5]). This molecule displayed an IC50 at CYP 2C9 of 8.8 µM. Moreover, the entries for the “% Total Peak Area, parent remaining” value in data set [1] and in data set [2] were 87.7% and 87.8%, respectively. The partition ratio (Kp) at 15 min in data set [3] was determined as 1.1. Also, in data set [3], the Kp uu at 15 min came to 1.5.
